# Test results taken from publication PMC5047629, “Synthesis, Pharmacological Profile and Docking Studies of New Sulfonamides Designed as Phosphodiesterase-4 Inhibitors” (PLoS ONE, 2016).
# System: A/J mice
# Test: Murine model of asthma with 4 weekly OVA provocations (days 14, 21, 28, 35), interventional treatment
# Format: in vivo
# Details: LASSBio-448 100 mg/Kg oral
# Experimental: Sensitization was performed by means of a subcutaneous injection of 50 μg ovalbumin (OVA) (grade V; Sigma-Aldrich, St. Louis, MO) adsorbed to 5 mg of Al(OH)3 in 0.2 mL of sterile 0.9% NaCl (saline) at days 0 and 14. Intranasal OVA provocations (25 μg /25 μL saline) were performed at 19 and 20 days post-sensitization under isofluorane volatile anaesthesia (Cristalia, São Paulo, Brazil). Alternatively, sensitization as described above were done at days 0 and 7, while the OVA provocations were carried out at days 14, 21, 28 and 35 [39]. Negative control groups were represented by sensitized mice in which allergen was replaced by saline as a challenge. Treatments were done orally 1 h before provocations. Test compounds were dissolved in saline containing 0.2% Tween 80. All solutions were freshly prepared immediately before use. Analyses were performed 24 h after the last provocation.
# Airflow and transpulmonary pressure were recorded with a Buxco pulmonary mechanics processing system (Buxco Electronics, Sharon, CT), which calculated resistance (cmH2O.s/ml) and dynamic lung compliance (mL/cmH2O) in each breath cycle. Elastance was calculated as the inverse of compliance values. Mice were anesthetized with nembutal (60 mg/kg), and the neuromuscular activity was blocked with bromide pancuronium (1 mg/kg). Animals were allowed to stabilize for 5 min and increasing concentrations of methacholine (3–27 mg/mL) were aerosolized for 5 min each. Baseline pulmonary parameters were assessed with aerosolized phosphate buffer solution (PBS).
# The EPO activity present in lung tissue was determined with a colorimetric assay as described by Strath et al. (1985), with minor modifications. Briefly, the lungs were cannulated and perfused with saline/EDTA (20 mM). Then, lung samples were homogenized in buffer solution containing 0.5% HBSS (Hank´s balanced solution, pH 7.4; Sigma Chemical Co.) using a tissue homogenizer (T25 ultra-Tirrax). Samples were centrifuged at 1300 xg for 10 min at 4°C. Red blood cells were removed by hypotonic and hypertonic lysis. The suspended cells were then centrifuged again at 1300 xg for 10 min at 4°C. The pellet was then suspended in a solution of HBSS containing 0.5% of HTAB (hexadecyltrimethylamonium bromide; Sigma Chemical Co.) (pH 7.4). This suspension was subjected to heat shock for lysing the cells in three cycles freeze/thawed. At the end, the supernatants were collected, centrifuged at 12000 rpm for 15 min at 4°C and assayed spectrophotometrically for EPO determination. Fifty μl of the samples were placed, and then 50 μl of the substrate (1.5 mM o-phenylenediamine and 6.6 mM hydrogen peroxide in 0.05 mM Tris-HCl buffer, pH 8.0) was added and, after a 30 min incubation at room temperature, 50 μl of H2SO4 (4M) was added to stop the reaction. The optical density reading was performed on the SpectraMax M5 spectrophotometer (Molecular Devices) at a wavelength of 492 nm.
# Right lungs tissue samples from saline- and OVA-exposed mice were homogenized in PBS containing 0.05% Triton X-100 and a protease inhibitor cocktail (Complete®, Hoffmann-La Roche Ltd, Basel, Switzerland). After centrifugation at 13000xg for 10 min and 4°C, the levels of IL-13, IL-5, IL-4 and eotaxin-2 were quantified in the supernatant, using commercially available ELISA kits (DuoSet; R&D Systems, Minneapolis, MN, USA). The results were expressed as picograms of cytokine per right lung.
# [1] = rolipram 10 mg/Kg oral, right lung, 24 h after last challenge, vs vehicle, Fig 8
compound,measurement,setting,value
"COc1ccc(CCNS(=O)(=O)c2cc3c(cc2C)OCO3)cc1OC [6a (LASSBio-448), N-(3,4-dimethoxyphenethyl)-6-methylbenzo[d][1, 3]dioxole-5-sulfonamide]",extracellular matrix deposition (histology),"interventional, Fig 6",sensitive to the interventional treatment
same,mucus exacerbation (histology),"interventional, Fig 6",sensitive to the interventional treatment
same,"airway hyper-reactivity to methacholine, airway resistance","rolipram 10 mg/Kg oral, Fig 7A",equally effective in inhibiting
same,"airway hyper-reactivity to methacholine, lung elastance","rolipram 10 mg/Kg oral, Fig 7B",equally effective in inhibiting
same,IL-4 level in lung tissue,[1],reduction in the levels
same,IL-5 level in lung tissue,[1],reduction in the levels
same,IL-13 level in lung tissue,[1],reduction in the levels
same,eotaxin-2 level in lung tissue,[1],reduction in the levels
same,allergen-induced eosinophil accumulation in the lung tissue (eosinophil peroxidase),"rolipram 10 mg/kg oral, at third and fourth weeks of challenge, Fig 5",impair the progress
